From patent publication US8106212B2, “Substituted enaminocarbonyl compounds” (Bayer Cropscience AG, priority 2006, dated 2012)

Legend:
Type in all cases: in vivo
Boophilus microplus = Boophilus microplus test (BOOPMI injection); conditions: 20 μg/Tier injected into abdomen, 100% = no tick has laid fertile eggs
Description: [table] To produce a suitable preparation of active compound, 1 part by weight of active compound is mixed with the stated amounts of solvent, and the concentrate is diluted with solvent to the desired concentration. The solution of active compound is injected into the abdomen (Boophilus microplus), and the animals are transferred into dishes and kept in a temperature-controlled room. After the desired period of time, the effect in % is determined. 100% means that no tick has laid any fertile eggs.

[1] = system: green peach aphid (Myzus persicae); experiment: Myzus test (MYZUPE spray treatment); conditions: Chinese cabbage discs sprayed
Description: [table] To produce a suitable preparation of active compound, 1 part by weight of active compound is mixed with the stated amounts of solvent and emulsifier, and the concentrate is diluted with emulsifier-containing water to the desired concentration. Discs of Chinese cabbage (Brassica pekinensis) which are infected by all stages of the green peach aphid (Myzus persicae) are sprayed with a preparation of active compound of the desired concentration. After the desired period of time, the effect in % is determined. 100% means that all aphids have been killed; 0% means that none of the aphids have been killed. [table] To produce a suitable preparation of active compound, 1 part by weight of active compound is mixed with the stated amounts of solvent and emulsifier, and the concentrate is diluted with emulsifier-containing water to the desired concentration. Discs of Chinese cabbage (Brassica pekinensis) which are infected by all stages of the green peach aphid (Myzus persicae) are sprayed with a preparation of active compound of the desired concentration. After the desired period of time, the effect in % is determined. 100% means that all aphids have been killed; 0% means that none of the aphids have been killed.

[2] = system: larvae of the mustard beetle (Phaedon cochleariae); experiment: Phaedon test (PHAECO spray treatment); conditions: 500 g/ha, Chinese cabbage discs sprayed
Description: [table] To produce a suitable preparation of active compound, 1 part by weight of active compound is mixed with the stated amounts of solvent and emulsifier, and the concentrate is diluted with emulsifier-containing water to the desired concentration. Discs of Chinese cabbage (Brassica pekinensis) are sprayed with a preparation of active compound of the desired concentration and, after drying, populated with larvae of the mustard beetle (Phaedon cochleariae). After the desired period of time, the effect in % is determined. 100% means that all beetle larvae have been killed; 0% means that none of the beetle larvae have been killed.

[3] = system: green peach aphid (Myzus persicae); experiment: Myzus test; oral (MYZUPE O); conditions: 0.0064 ppm, oral uptake by sucking
Description: Myzus Test; Oral; (MYZUPE O) Solvent: 80 parts by weight of acetone To produce a suitable preparation of active compound, 1 part by weight of active compound is mixed with the stated amounts of solvent, and the concentrate is diluted with water to the desired concentration. Containers are populated with all stages of the green peach aphid (Myzus persicae), treatment is by sucking at the preparation of active compound of the desired concentration. After the desired period of time, the effect in % is determined. 100% means that all aphids have been killed; 0% means that none of the aphids have been killed.

[4] = system: adult fleas (Ctenocephalides felis); experiment: Ctenocephalides felis; oral (CTECFE); conditions: 4 ppm in citrated cattle blood
Description: [table] To produce a suitable preparation of active compound, 1 part by weight of active compound is mixed with the stated amount of solvent. Part of the concentrate is diluted with citrated cattle blood, and the desired concentration is prepared. 20 unfed adult fleas (Ctenocephalides felis) are placed into a chamber whose top and bottom ends are closed with gauze. A metal cylinder whose bottom end is closed with parafilm is placed onto the chamber. The cylinder contains the blood/active compound preparation, which can be taken up by the fleas through the parafilm membrane. The blood is warmed to 37° C., but the flea chamber is at room temperature. After the desired period of time, the kill in % is determined. 100% means that all fleas have been killed; 0% means that none of the fleas have been killed.

[5] = system: green peach aphid (Myzus persicae); experiment: Myzus persicae test, hydroponic treatment (MYZUPE sys.); conditions: 4 ppm in water (mg/l), pea plant
Description: [table] To produce a suitable preparation of active compound, 1 part by weight of active compound is mixed with the stated amounts of solvent and emulsifier, and the concentrate is diluted with water to the desired concentration. The preparation of active compound is mixed with water. The stated concentration refers to the amount of active compound per volume unit of water (mg/l=ppm). The treated water is filled into containers housing a pea plant (Pisum sativum) which is then infected with the green peach aphid (Myzus persicae). After the desired period of time, the kill in % is determined. 100% means that all aphids have been killed; 0% means that none of the aphids have been killed.

[6] = system: cotton aphid (Aphis gossypii); experiment: Aphis gossypii test (APHIGO), leaf dip; conditions: 0.8 ppm, cotton leaves dipped
Description: [table] To produce a suitable preparation of active compound, 1 part by weight of active compound is mixed with the stated amounts of solvent and emulsifier, and the concentrate is diluted with emulsifier-containing water to the desired concentration. Cotton leaves (Gossypium hirsutum) which are heavily infested by the cotton aphid (Aphis gossypii) are treated by being dipped into the preparation of active compound of the desired concentration. After the desired period of time, the kill in % is determined. 100% means that all aphids have been killed; 0% means that none of the aphids have been killed.

[7] = system: larvae of the banded cucumber beetle (Diabrotica balteata); experiment: Diabrotica balteata test, larvae in soil (DIABBA); conditions: 2 ppm in soil (mg/l), efficacy calculated from emerged maize plants
Description: [table] To produce a suitable preparation of active compound, 1 part by weight of active compound is mixed with the stated amounts of solvent and emulsifier, and the concentrate is diluted with water to the desired concentration. The active compound preparation is mixed with soil. The stated concentration refers to the amount of active compound per volume unit of soil (mg/l=ppm). The treated soil is filled into pots, and 5 maize corns are placed into each pot. 3 days after sowing, larvae of the banded cucumber beetle (Diabrotica balteata) are placed into the treated soil. After the desired period of time, the kill in % is determined. The efficacy is calculated from the number of maize plants that have emerged.

Meloidogyne incognita = experiment: Meloidogyne test (MELGIN spray treatment); conditions: 4 ppm, nematicidal activity by formation of galls on lettuce roots (100% = no galls)
Description: [table] To produce a suitable preparation of active compound, 1 part by weight of active compound is mixed with the stated amounts of solvent, and the concentrate is diluted with water to the desired concentration. Containers are filled with sand, active compound solution, Meloidogyne incognita egg/larvae suspension and lettuce seeds. The lettuce seeds germinate and the plants develop. On the roots, galls are formed. After the desired period of time, the nematicidal activity is determined by the formation of galls in %. 100% means that no galls were found; 0% means that the number of galls on the treated plants corresponds to that of the untreated controls.

Lucilia cuprina larvae = experiment: Lucilia cuprina test (LUCICU); conditions: 4 ppm, treated horse meat
Description: [table] To produce a suitable preparation of active compound, 1 part by weight of active compound is mixed with the stated amounts of solvent, and the concentrate is diluted with water to the desired concentration. Containers containing horse meat treated with the preparation of active compound of the desired concentration are populated with Lucilia cuprina larvae. After the desired period of time, the kill in % is determined. 100% means that all larvae have been killed; 0% means that none of the larvae have been killed.

[8] = 4 g/ha, Biological Examples table
[9] = 100 g/ha, Biological Examples table
[10] = 20 g/ha, Biological Examples table

**Q.** For `CCN(Cc1cnc(Cl)c(C)c1)C1=CC(=O)OC1` [Example 20], which “Kill rate in % after 7 days” value (Boophilus microplus) is on record?
**A.** 30%

**Q.** `O=C1C=C(N(Cc2cnc(Br)c(Cl)c2)C2CC2)CO1` [Example 23] was tested. Which “Kill rate in % after 7 days” value (Boophilus microplus) did it give?
**A.** 30%

**Q.** `CN(Cc1cnc(Cl)c(Cl)c1)C1=CC(=O)OC1` [Example 10, 4-[[(5,6-dichloropyridin-3-yl)methyl](methyl)amino]furan-2(5H)-one] was tested. Which “Kill rate in % after 5 days” value [1, 8] did it give?
**A.** 100%

**Q.** What about the “Kill rate in % after 5 days” value ([1]; 20 g/ha, comparative table) of the same compound?
**A.** 100%

**Q.** What about the “Kill rate in % after 7 days” value [2] of the same compound?
**A.** 100%

**Q.** Which “Kill rate in % after 5 days” value [3] does the source give for `Cc1cc(CN(C)C2=CC(=O)OC2)cnc1Cl` [Example 13] here?
**A.** 70%

**Q.** Which “Kill rate in % after 5 days” value [1, 9] does the source give for `O=C1C=C(N(Cc2cnc(Cl)c(Cl)c2)C2CC2)CC1` [Example 17] here?
**A.** 100%

**Q.** How did the “Kill rate in % after 5 days” value [1, 8] turn out when `CN(Cc1cnc(Cl)nc1)C1=CC(=O)OC1` [Example 5, 4-[[(2-Chloropyrimidin-5-yl)methyl](methyl)amino]furan-2(5H)-one] was run?
**A.** 100%

**Q.** With `O=C1C=C(N(Cc2cnc(Cl)c(F)c2)C2CC2)CO1` [Example 26] as the compound, how does the “Kill rate in % after 2 days” value [4] read?
**A.** 60%

**Q.** With `CCN(Cc1cnc(Cl)c(Cl)c1)C1=CC(=O)OC1` [Example 16] as the compound, how does the “Kill rate in % after 5 days” value [1, 10] read?
**A.** 100%

**Q.** For `O=C1C=C(N(Cc2cnc(Cl)c(I)c2)C2CC2)CO1` [Example 3, 4-[[(6-Chloro-5-iodopyridin-3-yl)methyl](cyclopropyl)amino]furan-2(5H)-one], which “Kill rate in % after 7 days” value (Boophilus microplus) is on record?
**A.** 40%

**Q.** `CN(Cc1cnc(Br)c(Br)c1)C1=CC(=O)OC1` [Example 22] was tested. Which “Kill rate in % after 5 days” value [5] did it give?
**A.** 100%

**Q.** How did the “Kill rate in % after 6 days” value [6] turn out when `Cc1cc(CN(C2=CC(=O)OC2)C2CC2)cnc1Cl` [Example 12] was run?
**A.** 50%

**Q.** Which “Kill rate in % after 5 days” value [1, 9] does the source give for `CN(Cc1cnc(Cl)c(C#N)c1)C1=CC(=O)OC1` [Example 18] here?
**A.** 100%

**Q.** What does the source list for `O=C1C=C(N(Cc2cnc(Cl)c(Cl)c2)C2CC2)CO1` [Example 11]?
**A.** Kill rate in % after 5 days [1, 8]: 100%; Kill rate in % after 5 days ([1]; 100 g/ha, comparative table): 100%; Kill rate in % after 7 days [2]: 100%; Kill rate in % after 2 days [4]: 50%; Kill rate in % after 7 days (Boophilus microplus): 50%

**Q.** `CN(Cc1cnc(Cl)c(Br)c1)C1=CC(=O)OC1` [Example 14] was tested. Which “Kill rate in % after 5 days” value [1, 10] did it give?
**A.** 100%

**Q.** For `CN(Cc1cnc(Cl)c(I)c1)C1=CC(=O)OC1` [Example 19], which “Kill rate in % after 5 days” value [1, 10] is on record?
**A.** 70%

**Q.** Which results are given for `CN(Cc1cnc(Br)c(F)c1)C1=CC(=O)OC1` [Example 24]?
**A.** Kill rate in % after 5 days [5]: 100%; Kill rate in % after 5 days [1, 8]: 100%

**Q.** How did the “Kill rate in % after 10 days” value [7] turn out when `CN(Cc1cnc(Cl)c(F)c1)C1=CC(=O)OC1` [Example 1, 4-[[(6-Chloro-5-fluoropyridin-3-yl)methyl](methyl)amino]furan-2(5H)-one] was run?
**A.** 100%

**Q.** And the “Kill rate in % after 7 days” value (Boophilus microplus)?
**A.** 30%

**Q.** How did the “Kill rate in % after 7 days” value (Boophilus microplus) turn out when `CON(Cc1cnc(Cl)c(Cl)c1)C1=CC(=O)OC1` [Example 2, 4-[[(5,6-Dichloropyridin-3-yl)methyl](methoxy)amino]furan-2(5H)-one] was run?
**A.** 30%

**Q.** `O=C1C=C(N(Cc2cnc(Cl)nc2)C2CC2)CO1` [Example 6, 4-[[(2-Chloropyrimidin-5-yl)methyl](cyclopropyl)amino]furan-2(5H)-one] was tested. Which “Kill rate in % after 5 days” value [1, 10] did it give?
**A.** 100%

**Q.** Which “Kill rate in % after 14 days” value (Meloidogyne incognita) does the source give for `O=C1C=C(N(Cc2cnc(Cl)c(Br)c2)C2CC2)CO1` [Example 15] here?
**A.** 70%

**Q.** And the “Kill rate in % after 6 days” value [6]?
**A.** 40%

**Q.** Which “Kill rate in % after 5 days” value [5] does the source give for `CN(Cc1cnc(Br)c(Cl)c1)C1=CC(=O)OC1` [Example 4, 4-[[(6-Bromo-5-chloropyridin-3-yl)methyl](methyl)amino]furan-2(5H)-one] here?
**A.** 100%

**Q.** With `CN(Cc1cnc(Cl)c(Cl)c1)C1=C(Cl)C(=O)OC1` [Example 8, 3-Chloro-4-[[(5,6-dichloropyridin-3-yl)methyl](methyl)amino]furan-2(5H)-one] as the compound, how does the “Kill rate in % after 5 days” value [1, 9] read?
**A.** 80%

**Q.** Which “Kill rate in % after 5 days” value [1, 10] does the source give for `O=C1C=C(N(Cc2cnc(Br)c(Br)c2)C2CC2)CO1` [Example 21] here?
**A.** 80%

**Q.** Which results are given for `O=C1C=C(N(Cc2cnc(Br)c(F)c2)C2CC2)CO1` [Example 25]?
**A.** Kill rate in % after 5 days [1, 8]: 100%; Kill rate in % after 2 days (Lucilia cuprina larvae): 100%

**Q.** How did the “Kill rate in % after 5 days” value [1, 9] turn out when `CC1OC(=O)C=C1N(C)Cc1cnc(Cl)c(Cl)c1` (centres unmarked) [Example 7, 4-[[(5,6-dichloropyridin-3-yl)methyl](methyl)amino]-5-methylfuran-2(5H)-one] was run?
**A.** 90%
